Assay results from patent US20260028336A1 (Arcus Biosciences, Inc., priority 2022, published 2026).

What was measured:
[1] = molecular target: T1, Cbl-b (Homo sapiens, UniProt Q13191); experiment: Cbl-b probe displacement HTRF binding assay; conditions: 0.4 nM biotinylated Cbl-b, 150 nM BODIPY probe
T1 construct: biotin (biotinylated)
Summary of the method: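 Biotinylated Cbl-b was preincubated with compound for 60 min at room temperature in HEPES/NaCl/Triton/TCEP/BSA buffer. BODIPY probe was added for 15 min, followed by streptavidin-terbium, and the HTRF signal was read. Displacement was normalised to DMSO and no-protein controls, and affinity was obtained from a four-parameter dose-response fit.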

[2] = tested on: Jurkat cells; experiment: IL-2 secretion assay in CD3/CD28-activated Jurkat cells (AlphaLISA); type: cell-based; conditions: Homo sapiens, CD3/CD28 T Cell Activator, 24 h, IL-2 AlphaLISA
Experimental: Certain compounds were also evaluated in an IL-2 secretion assay. On the day of the assay, a 16 point, 1:2 master serial dilution of each compound was prepared in Opti-MEM to span a final concentration range of 10 μM to 300 pM. Assays were set up in CORNING® tissue culture-treated 384-well microplates containing 60 nL of each dilution. […] 50,000 cells/well and added to the compound plates. After a short spin (1200 rpm for 1 min), the plates were incubated at 37° C. for 1 hour. The cells were activated by adding 15 μL of IMMUNOCULT™ Human CD3/CD28 T Cell Activator ([…] Technologies) diluted in Opti-MEM. […] The AiphaLISA signal was measured using an EnVision plate reader (PerkinElmer). EC50 values were determined by fitting the data to a standard 4-parameter logistic equation.

T1 sequence (Q13191 whole entry, species assumed): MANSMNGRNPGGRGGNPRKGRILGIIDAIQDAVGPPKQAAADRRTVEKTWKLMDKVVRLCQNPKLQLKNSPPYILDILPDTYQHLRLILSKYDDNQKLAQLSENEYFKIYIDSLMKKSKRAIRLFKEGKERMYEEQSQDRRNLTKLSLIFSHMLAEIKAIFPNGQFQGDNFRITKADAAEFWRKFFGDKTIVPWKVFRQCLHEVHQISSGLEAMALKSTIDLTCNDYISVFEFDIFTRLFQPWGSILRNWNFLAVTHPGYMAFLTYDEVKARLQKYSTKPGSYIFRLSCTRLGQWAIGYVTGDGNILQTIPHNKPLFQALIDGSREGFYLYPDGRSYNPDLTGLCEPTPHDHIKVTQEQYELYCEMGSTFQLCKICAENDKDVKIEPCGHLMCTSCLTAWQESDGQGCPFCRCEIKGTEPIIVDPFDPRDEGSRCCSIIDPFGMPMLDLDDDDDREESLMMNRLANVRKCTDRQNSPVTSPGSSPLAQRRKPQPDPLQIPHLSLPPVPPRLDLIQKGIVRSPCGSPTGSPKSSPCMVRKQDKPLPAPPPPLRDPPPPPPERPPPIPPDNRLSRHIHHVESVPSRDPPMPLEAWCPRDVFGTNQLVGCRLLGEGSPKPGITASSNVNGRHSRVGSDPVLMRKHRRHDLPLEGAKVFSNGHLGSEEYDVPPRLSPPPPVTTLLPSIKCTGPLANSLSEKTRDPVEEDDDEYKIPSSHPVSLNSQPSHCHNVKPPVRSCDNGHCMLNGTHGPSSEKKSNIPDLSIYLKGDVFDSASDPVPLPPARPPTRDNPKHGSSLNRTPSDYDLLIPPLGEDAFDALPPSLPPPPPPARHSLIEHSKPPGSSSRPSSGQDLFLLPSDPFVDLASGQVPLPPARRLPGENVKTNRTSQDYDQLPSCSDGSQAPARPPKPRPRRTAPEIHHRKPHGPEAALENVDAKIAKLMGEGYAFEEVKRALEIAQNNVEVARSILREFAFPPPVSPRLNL

Structure (SMILES) | IC50 [1] [nM] | EC50 [2] [nM]
C[C@H]1CCCN(Cc2cc3c(C4CC4)cn(-c4cccc(C(O)(c5nncn5C)C(F)(F)F)c4)c(=O)c3[nH]2)C1 (stereo partly drawn) [Example 156] | < 100 | 100 to 1000
CC1CC(c2cccc(-n3cc(C4CC4)c4cc(CN5C[C@@H](F)C[C@H](F)C5)[nH]c4c3=O)c2)(c2nncn2C)C1 (stereo partly drawn) [Example 65, 4-cyclopropyl-2-{[(3S,5S)-3,5-difluoropiperidin-1-yl]methyl}-6-{3-[(1r,3s)-3-methyl-1-(4-methyl-4H-1,2,4-triazol-3-yl)cyclobutyl]phenyl}-1H,6H,7H-pyrrolo[2,3-c]pyridin-7-one] | < 100 | 1000 to 5000
C[C@H]1CCCN(Cc2cc3c(C4CC4)cn(-c4cccc(C5(c6nccn6C)CC(F)(F)C5)c4)c(=O)c3[nH]2)C1 [Example 128, 4-cyclopropyl-6-[3-[3,3-difluoro-1-(1-methylimidazol-2-yl)cyclobutyl]phenyl]-2-[[(3S)-3-methylpiperidin-1-yl]methyl]-1H-pyrrolo[2,3-c]pyridin-7-one] | < 100 | 100 to 1000
CC1CC(c2cccc(-n3cc(C4CC4)c4cc(CN[C@@H]5CCCOC5)[nH]c4c3=O)c2)(c2nncn2C)C1 (stereo partly drawn) [Example 49, 4-cyclopropyl-6-{3-[3-methyl-1-(4-methyl-4H-1,2,4-triazol-3-yl)cyclobutyl]phenyl}-2-{[(oxan-3-yl)amino]methyl}-1H,6H,7H-pyrrolo[2,3-c]pyridin-7-one] | < 100 | < 100
C[C@H]1CCCN(Cc2cc3c(C4CC4)cn(-c4cccc([C@]5(c6nncn6C)C[C@H](OC(F)F)C5)c4)c(=O)c3[nH]2)C1 [Example 95, trans-4-cyclopropyl-6-[3-[3-(difluoromethoxy)-1-(4-methyl-1,2,4-triazol-3-yl)cyclobutyl]phenyl]-2-[[(3S)-3-methylpiperidin-1-yl]methyl]-1H-pyrrolo[2,3-c]pyridin-7-one] | < 100 | < 100
Cn1cnnc1C1(c2cccc(-n3cc(C4CC4)c4cc(CN5CCOC6(CC6)C5)[nH]c4c3=O)c2)CC(F)(F)C1 [Example 86, 4-cyclopropyl-6-{3-[3,3-difluoro-1-(4-methyl-4H-1,2,4-triazol-3-yl)cyclobutyl]phenyl}-2-({4-oxa-7-azaspiro[2.5]octan-7-yl}methyl)-1H,6H,7H-pyrrolo[2,3-c]pyridin-7-one] | 100 to 1000 | 1000 to 5000
CC1CC(c2cccc(-n3cc(C4CC4)c4cc(CN[C@@H]5COC[C@@H]5O)[nH]c4c3=O)c2)(c2nncn2C)C1 (stereo partly drawn) [Example 40, 4-cyclopropyl-2-({[(3R,4R)-4-hydroxyoxolan-3-yl]amino}methyl)-6-{3-[3-methyl-1-(4-methyl-4H-1,2,4-triazol-3-yl)cyclobutyl]phenyl}-1H,6H,7H-pyrrolo[2,3-c]pyridin-7-one] | < 100 | 100 to 1000
CC(C)[C@H]1CN(C)CCN1Cc1cc2c(C3CC3)cn(-c3cccc(C4(c5nncn5C)CC5(CC5)C4)c3)c(=O)c2[nH]1 [Example 73, 4-cyclopropyl-2-{[(2S)-4-methyl-2-(propan-2-yl)piperazin-1-yl]methyl}-6-{3-[5-(4-methyl-4H-1,2,4-triazol-3-yl)spiro[2.3]hexan-5-yl]phenyl}-1H,6H,7H-pyrrolo[2,3-c]pyridin-7-one] | < 100 | 100 to 1000
C[C@H]1CCCN(Cc2cc3c(C4CC4)cn(-c4cccc(C(C)(F)c5nccn5C)c4)c(=O)c3[nH]2)C1 (stereo partly drawn) [Example 164] | 1000 to 5000 | 1000 to 5000
Cn1cnnc1C1(c2cccc(-n3cc(C4CC4)c4cc(CN5CCC(F)(F)C5)[nH]c4c3=O)c2)CC(F)(F)C1 [Example 79, 4-cyclopropyl-6-{3-[3,3-difluoro-1-(4-methyl-4H-1,2,4-triazol-3-yl)cyclobutyl]phenyl}-2-[(3,3-difluoropyrrolidin-1-yl)methyl]-1H,6H,7H-pyrrolo[2,3-c]pyridin-7-one] | 100 to 1000 | 100 to 1000
C[C@H]1CCCN(Cc2cc3c(C4CC4)cn(-c4cccc(C5(c6ncco6)CC(F)(F)C5)c4)c(=O)c3[nH]2)C1 [Example 127, 4-cyclopropyl-6-[3-[3,3-difluoro-1-(1,3-oxazol-2-yl)cyclobutyl]phenyl]-2-[[(3S)-3-methylpiperidin-1-yl]methyl]-1H-pyrrolo[2,3-c]pyridin-7-one] | 100 to 1000 | 100 to 1000
C[C@@H]1CN(Cc2nc3c(C(F)(F)F)cn(-c4cccc(C5(c6nncn6C)CC(F)(F)C5)c4)c(=O)c3[nH]2)CCO1 [Example 114, 5-[3-[3,3-difluoro-1-(4-methyl-1,2,4-triazol-3-yl)cyclobutyl]phenyl]-2-[[(2R)-2-methylmorpholin-4-yl]methyl]-7-(trifluoromethyl)-3H-imidazo[4,5-c]pyridin-4-one] | 100 to 1000 | > 5000
CC1CC(c2cccc(-n3cc(C(=O)O)c4cn[nH]c4c3=O)c2)(c2nncn2C)C1 (mixture of isomers) [Example 141, 7-Oxo-6-{3-[(1R,3S)-3-methyl-1-(4-methyl-4H-1,2,4-triazol-3-yl)cyclobutyl]phenyl}-1H,6H,7H-pyrazolo[3,4-c]pyridine-4-carboxylic acid] | 1000 to 5000 | > 5000
CO[C@H]1C[C@@](c2cccc(-n3cc(C4CC4)c4cc(CN5CCC[C@H](C)C5)[nH]c4c3=O)c2)(c2nncn2C)C1 [Example 102, cis-4-cyclopropyl-6-[3-[3-methoxy-1-(4-methyl-1,2,4-triazol-3-yl)cyclobutyl]phenyl]-2-[[(3S)-3-methylpiperidin-1-yl]methyl]-1H-pyrrolo[2,3-c]pyridin-7-one] | < 100 | < 100
CC1CC(c2cccc(-n3cc(C4CC4)c4cc(CN5CCC(F)(F)[C@H](C)C5)[nH]c4c3=O)c2)(c2nncn2C)C1 (stereo partly drawn) [Example 57, 4-cyclopropyl-2-{[(3R)-4,4-difluoro-3-methylpiperidin-1-yl]methyl}-6-{3-[3-methyl-1-(4-methyl-4H-1,2,4-triazol-3-yl)cyclobutyl]phenyl}-1H,6H,7H-pyrrolo[2,3-c]pyridin-7-one] | < 100 | 100 to 1000
CC1CC(c2cccc(-n3cc(C4CC4)c4cc(CN(C)C5CCCC5)[nH]c4c3=O)c2)(c2nncn2C)C1 (stereo not drawn) [Example 47, 2-{[cyclopentyl(methyl)amino]methyl}-4-cyclopropyl-6-{3-[3-methyl-1-(4-methyl-4H-1,2,4-triazol-3-yl)cyclobutyl]phenyl}-1H,6H,7H-pyrrolo[2,3-c]pyridin-7-one] | < 100 | < 100
C[C@H]1CCCN(Cc2cc3c(C4CC4)cn(-c4cccc(C(F)c5nncn5C)c4)c(=O)c3[nH]2)C1 (stereo partly drawn) [Example 162, 4-cyclopropyl-6-[3-[fluoro-(4-methyl-1,2,4-triazol-3-yl)methyl]phenyl]-2-[[(3S)-3-methylpiperidin-1-yl]methyl]-1H-pyrrolo[2,3-c]pyridin-7-one] | 100 to 1000 | 100 to 1000
Cn1cnnc1[C@]1(c2cccc(-n3cc(CO)c4cn[nH]c4c3=O)c2)C[C@H](C)C1 [Example 142, 4-(Hydroxymethyl)-6-{3-[(1R,3S)-3-methyl-1-(4-methyl-4H-1,2,4-triazol-3-yl)cyclobutyl]phenyl}-1H,6H,7H-pyrazolo[3,4-c]pyridin-7-one] | 1000 to 5000 | > 5000
